According to patent US12622917B2, “High-activity Wnt pathway inhibitor compound” (ADLAI NORTYE BIOPHARMA CO., LTD., priority 2020, dated 2026):

Key:
RKO = assay: Proliferation inhibition, non-Wnt mutant control cell line RKO; type: cell-based; conditions: Homo sapiens, Wnt-independent control cell line, 96 hours, read-out: Antiproliferative IC50 RKO
Text: (§1) The cell lines used in the experiment are Colo205 and DU4475 cell lines whose Wnt pathway is continuously activated and whose proliferation is Wnt pathway-dependent; while the BELA and RKO cell lines, whose Wnt pathway is not activated under normal circumstances and the proliferation is independent of Wnt pathway, as control cell lines. It is Judged that the inhibitory effect of the compound of the present invention on Wnt-dependent proliferation is not caused by other non-specific toxicity.
(§2) Treat the Colo205, Du4475, HELA and RKO cell lines cultured in their respective mediums in the logarithmic growth phase, collect the cells and prepare a uniform cell suspension of known concentration, and then add it to the 96-well cell culture plate Cell suspension, so that each well contains 1000 cells. Put it into a 5% CO2 incubator and incubate at 37° C. for 20-24 h. On the second day, the fully dissolved, 3-fold serially diluted compound was added to each cell culture well, so that the final maximum concentration in the cell culture well was 20 uM, and the culture was continued for 96 hours. In this test, Promega's cell viability detection test is used for detection. The more the cells proliferate, the stronger the final signal intensity will be. The detection instrument is SpectraMax, full wavelength mode. The wells only added with DMSO were used as positive control wells, and the wells that were not inoculated with cells were used as negative control wells. […] The IC50 value of cell proliferation inhibition was used to evaluate the inhibitory effect of the compound on the Wnt pathway and the toxic effect on normal cells (Table 2).

Colo205 = assay: Proliferation inhibition, Wnt mutant cell line Colo205; type: cell-based; conditions: Homo sapiens, COLO 205; Colo205, Wnt pathway-dependent, 96 hours; read-out: Antiproliferative IC50 Colo205
Text: as §1, §2

HepG2 = assay: Proliferation inhibition, HepG2 cell line; type: cell-based; conditions: Homo sapiens; HepG2 cells, 96 hours culture, cell viability detection; read-out: Antiproliferative IC50 HepG2
Text: (§3) The cell lines used in the test are NCI-H929 and HepG2 cell lines whose Wnt pathway is continuously activated and whose proliferation is Wnt pathway-dependent; the inhibitory effect of the compound of the present invention on Wnt-dependent proliferation is judged.
(§4) Treat the NCI-H929 and HepG2 cell lines cultured in their respective mediums in the logarithmic growth phase, collect the cells and prepare a uniform cell suspension of known concentration, and then add the cell suspension to the 96-well cell culture plate solution so that each well contains 4000 cells. Put it into a […] incubator and incubate at 37° C. for 20-24 h. On the second day, the fully dissolved, 3-fold serially diluted compound was added to each cell culture well, so that the final maximum concentration in the cell culture well was 20 uM, and the culture was continued for 96 hours. In this test, Promega's cell viability detection test is used for detection. The more the cells proliferate, the stronger the final signal intensity will be. The detection instrument is SpectraMax, full wavelength mode. The wells only added with DMSO were used as positive control wells, and the wells that were not inoculated with cells were used as negative control wells. […] The IC50 value of cell proliferation inhibition was used to evaluate the inhibitory effect of the compound on the Wnt pathway and the toxic effect on normal cells (Table 3).

DU4475 = assay: Proliferation inhibition, Wnt mutant cell line DU4475; type: cell-based; conditions: Homo sapiens, DU-4475; DU4475, Wnt pathway-dependent, 96 hours; read-out: Antiproliferative IC50 DU4475
Text: as §1, §2

[1] = test system: Colo205-LUC-TCF/LEF M1 reporter cell line (Wnt pathway); assay: Colo205-LUC-TCF/LEF M1 reporter gene (luciferase) inhibition; type: cell-based; conditions: 4 hours incubation, luciferase readout
Text: Colo205 cell line (Cell Bank of Chinese Academy of Sciences, Cat #TCHu102) was purchased from the Cell Bank of Chinese Academy of Sciences. After expansion and subculture, in the exponential growth phase of the cells, transfection with lipo3000 liposome transfection with TCF/LEF transcription factors Driven luciferase reporter plasmid (Promega). […] The plasmid carries a resistance gene for resistance screening. Transfection was carried out in 10 cm culture dishes using conventional complete medium without resistance. After 2 days, the medium with resistance was replaced, and the culture was continued. After that, the resistant medium was replaced every 2 days, and the suspended cells were discarded. The original medium was centrifuged to remove cells and debris and retained as an adaptive medium. When the cells covered the culture dish, the cells were digested, counted, and passaged in a 96-well plate, so that the average number of cells contained in each well was 1.5/well, and the adaptive medium was used for passage. The rest of the cells were frozen. After subculture, culture for 4 hours to allow the cells to adhere to the wall, and then observe the number of cells in each well under a microscope. Wells with only 1 cell per well were labeled as monoclonal wells. Afterwards, normal culture was performed, and the culture medium was replaced every 2 days, and observed. There are holes where the monoclonal cells continue to grow in the early stage, and they are labeled twice, and can be replaced with normal resistant medium. When a monoclonal well was overgrown with a 96-well plate, it is digested and passaged to a 24-well culture plate. After the 24-well plate is overgrown, it is passaged to a 96-well plate and a 6-well plate. The cells in a 96-well plate are at least 6 wells, of which 3 wells were added with known Wnt inhibitors, and the other 3 wells were not treated. After 24 hours, the cells in the 96-well plate were added with a fluorescence detection reagent to detect the fluorescence intensity. Cell lines with fluorescent expression when not treated and decreased fluorescent light after inhibition were selected and further cultured. The Colo205-LUC-TCF/LEF-M1 cell line is one of the cell lines screened above. Its growth curve, cell shape, and cell growth state are similar to those of the original Colo205 cells, and the ratio of the fluorescent signals of the inhibitor-treated and untreated cells is the largest among all cell lines, and the ratio can reach 4-5 times when inhibited at 4 hours, which was completely suitable for the screening of Wnt inhibitors in the later stage.
The Colo205-LUC-TCF/LEF M1 cell line is a reporter tool cell stably transfected with the pGL4.49-LUC2-TCF/LEF vector. The β-catenin Wnt pathway is continuously activated. After adding the inhibitor, the Wnt pathway is inhibited. The expression of firefly luciferase regulated by the[…] cis-element decreased, and after adding the detection substrate, the detected light signal decreased accordingly, so as to detect the inhibitory effect of the compound.
To a 96-well cell culture plate, add 100 uL of the compound with a maximum concentration of 20 uM to each well, and make a 3-fold serial dilution of the compound concentration. Then 10,000 colo205 cells stably transfected with the reporter gene and 100 uL medium were inoculated into each well, and corresponding positive and negative control wells were made at the same time. Put the cells in a 5% CO2 incubator and incubate at 37° C. for 4 hours. After 4 hours, remove the culture medium, add 100 uL of reagent (Promega) containing the corresponding firefly luciferase substrate to each well, and measure the activity of luciferase reporter gene. Luminescence intensity was read with SpectraMax in full wavelength mode. […]

NCI-H929 = assay: Proliferation inhibition, NCI-H929 cell line; type: cell-based, human; conditions: Homo sapiens; NCI-H929 cells, 96 hours culture, cell viability detection; read-out: Antiproliferative IC50 NCI-H929
Text: as §3, §4

| Compound | IC50 (Colo205) | IC50 (HepG2) | IC50 [1] | IC50 (NCI-H929) | IC50 (RKO) | IC50 (DU4475) |
| --- | --- | --- | --- | --- | --- | --- |
| Cc1cc(CNc2nc3c4c(n2)N(C)[C@@H](C)C(=O)N4CCC3)cnc1Oc1ccc(C(F)(F)F)nc1 [103 (W195)] | 19 nM | 68 nM | 36 nM |  | > 10000 nM | 11 nM |
| CCN1c2nc(NCc3ccc(Oc4ccc(C(F)(F)F)nc4)nc3)nc3c2N(CCC3)C(=O)[C@@H]1C [116 (W249), (S)-4-ethyl-5-methyl-2-(((6-((6-(trifluoromethyl)pyridin-3-yl)oxo)pyridin-3-yl)methyl)amino)-4,5,9,10-tetrahydro-6H,8H-pyrido[3,2,1-de]pteridin-6-one] | 36 nM | 69 nM | 30 nM | 17 nM | > 10000 nM | 46 nM |
| C[C@H]1C(=O)N2CCCc3nc(NCc4ccc(Oc5cc(C(F)(F)F)nn5C5CC5)nc4)nc(c32)N1C [130 (W354), (S)-2-(((6-((1-cyclopropyl-3-(trifluoromethyl)-1H-pyrazol-5-yl)oxo)pyridin-3-yl)methyl)amino)-4,5-dimethyl-4,5,9,10-tetrahydro-6H,8H-pyrido[3,2,1-de]pteridin-6-one] | < 0.5 nM | < 0.5 nM | < 0.5 nM | 19 nM | > 10000 nM |  |
| CN1c2nc(NCc3ccc(Oc4cnc(C(F)(F)F)nc4)nc3)nc3c2N(CCC3)C(=O)[C@@H]1C(C)(C)C [160 (W362)] | < 0.5 nM | 3.5 nM | 3 nM | 48 nM | 7150 nM |  |
| CC(C)N1c2nc(NCc3ccc(Oc4cnc(C(F)(F)F)nc4)nc3)nc3c2N(CCC3)C(=O)[C@@H]1C [170 (W368)] | 7 nM | 31 nM | 17 nM | 94 nM | > 10000 nM |  |
| COC[C@@]1(C)C(=O)N2CCCc3nc(NCc4ccc(Oc5cnc(C(F)(F)F)nc5)nc4)nc(c32)N1C [180 (W386)] | 14.6 nM | 40 nM | 23 nM | 82 nM | > 10000 nM |  |
| [2H]C([2H])([2H])OC[C@@]1(C)C(=O)N2CCCc3nc(NCc4ccc(Oc5cnc(C(F)(F)F)nc5)nc4)nc(c32)N1C([2H])([2H])[2H] [181 (W396)] | 11.9 nM | 81 nM | 18 nM | 25 nM | > 10000 nM |  |
| [2H]C([2H])([2H])N1c2nc(NCc3ccc(Oc4cnc(C(F)(F)F)nc4)nc3)nc3c2N(CCC3)C(=O)C1CC(F)(F)F (stereo not shown) [192 (W324)] | 3.2 nM | 4 nM | 23 nM | 12 nM | > 10000 nM |  |
| [2H]C([2H])([2H])N1c2nc(NCc3ccc(Oc4ccc(C(F)(F)F)nc4)nc3)nc3c2N(CCC3)C(=O)C1CC(F)(F)F (stereo not shown) [195 (W323)] | 2.1 nM | 4 nM | 22 nM | 19 nM | > 10000 nM |  |
| CN1c2nc(NCc3ccc(Oc4cc(C(F)(F)F)nn4C4CC4)nc3)nc3c2N(CCC3)C(=O)[C@@H]1CO [205 (W379)] | 14.8 nM | 5.6 nM | 37 nM | 67 nM | > 10000 nM |  |
| C[C@@H](O)[C@H]1C(=O)N2CCCc3nc(NCc4ccc(Oc5cc(C(F)(F)F)nn5C5CC5)nc4)nc(c32)N1C [206 (W388)] | 10 nM | 49 nM | 24 nM | 90 nM | > 10000 nM |  |
| COCC[C@H]1C(=O)N2CCCc3nc(NCc4ccc(Oc5ccc(C(F)(F)F)nc5)nc4)nc(c32)N1C [214 (W392)] | 34 nM | 9.6 nM |  | 82 nM | > 10000 nM |  |
| C[C@H]1C(=O)N2CCCc3nc(NCc4cnc(Oc5ccc(C(F)(F)F)nc5)c(C#N)c4)nc(c32)N1C [238 (W426)] | 24.6 nM | 25.8 nM | 27.3 nM |  | > 10000 nM |  |

Further lines, with some results ahead:

| IC50 (Colo205) | IC50 (HepG2) | IC50 [1] | IC50 (NCI-H929) | Compound | IC50 (RKO) | IC50 (DU4475) |
| --- | --- | --- | --- | --- | --- | --- |
| 2.7 nM | 4.4 nM | 4 nM | 36 nM | CCn1nc(C(F)(F)F)cc1Oc1ccc(CNc2nc3c4c(n2)N(C)[C@@H](C)C(=O)N4CCC3)cn1 [152 (W336)] | > 10000 nM |  |
|  | 11 nM | 23 nM | 45 nM | COC[C@@]1(C)C(=O)N2CCCc3nc(NCc4ccc(Oc5ccc(C(F)(F)F)nc5)nc4)nc(c32)N1C [179 (W375)] | > 10000 nM |  |
| 3.6 nM | 14 nM | 6 nM | 51 nM | [2H]C([2H])([2H])N1c2nc(NCc3ccc(Oc4cc(C(F)(F)F)nn4CC)nc3)nc3c2N(CCC3)C(=O)[C@@H]1COC [201 (W360)] | > 10000 nM |  |
| 5 nM | 10 nM | 4 nM | 50 nM | CCn1nc(C(F)(F)F)cc1Oc1ccc(CNc2nc3c4c(n2)N(C)[C@@H](COC)C(=O)N4CCC3)cn1 [202 (W361)] | > 10000 nM |  |
| 9.3 nM | 8.2 nM | 21 nM | 95 nM | CN1c2nc(NCc3ccc(Oc4cc(C(F)(F)F)nn4C4CC4)nc3)nc3c2N(CCC3)C(=O)[C@]1(C)CO [203 (W372)] | > 10000 nM |  |
| 9.6 nM | 12 nM | 25 nM | 60 nM | CCn1nc(C(F)(F)F)cc1Oc1ccc(CNc2nc3c4c(n2)N(C)[C@@](C)(CO)C(=O)N4CCC3)cn1 [204 (W374)] | > 10000 nM |  |
| 4 nM | < 0.5 nM | 5.5 nM |  | COc1nc(C(F)(F)F)ccc1Oc1ccc(CNc2nc3c4c(n2)N(C)[C@@](C)(CO)C(=O)N4CCC3)cn1 [232 (W418)] | > 10000 nM |  |
